# Source: the supplement of paper PMC11451515
# Tested on: SEM cells
# Test: cell viability relative to DMSO control; higher = less cytotoxic
# Settings: 48 h
# Summary of the method: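 Viability values are per-plate percentages of DMSO wells, with background from cell-free wells. Library compounds in DMSO were pin-dosed, in an 11-point threefold series from 47 μM to 0.79 nM, onto NOMO1 or SEM (500 cells/well) or P12-Ichikawa (1000 cells/well) leukemia cells in 1536-well plates (5 μl). Those cells had been adapted for at least four passages in each medium, and CellTiter-Glo One luminescence was read after 48 h at 37°C.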
# [1] = HPLM + 10% dialyzed FBS, 0.000781 µM
# [2] = HPLM + 10% dialyzed FBS, 0.00234 µM
# [3] = HPLM + 10% dialyzed FBS, 0.00702 µM
# [4] = HPLM + 10% dialyzed FBS, 0.0211 µM
# [5] = HPLM + 10% dialyzed FBS, 0.0632 µM
# [6] = HPLM + 10% dialyzed FBS, 0.19 µM
# [7] = HPLM + 10% dialyzed FBS, 0.569 µM
# [8] = HPLM + 10% dialyzed FBS, 1.71 µM
# [9] = HPLM + 10% dialyzed FBS, 5.12 µM
# [10] = HPLM + 10% dialyzed FBS, 15.4 µM
# [11] = HPLM + 10% dialyzed FBS, 46.1 µM
# [12] = RPMI 5 mM glucose + 10% FBS, 0.000781 µM
# [13] = RPMI 5 mM glucose + 10% FBS, 0.00234 µM
# [14] = RPMI 5 mM glucose + 10% FBS, 0.00702 µM
# [15] = RPMI 5 mM glucose + 10% FBS, 0.0211 µM
# [16] = RPMI 5 mM glucose + 10% FBS, 0.0632 µM
# [17] = RPMI 5 mM glucose + 10% FBS, 0.19 µM
# [18] = RPMI 5 mM glucose + 10% FBS, 0.569 µM
# [19] = RPMI 5 mM glucose + 10% FBS, 1.71 µM
# [20] = RPMI 5 mM glucose + 10% FBS, 5.12 µM
# [21] = RPMI 5 mM glucose + 10% FBS, 15.4 µM
# [22] = RPMI 5 mM glucose + 10% FBS, 46.1 µM
# [23] = RPMI 5 mM glucose + 10% dialyzed FBS, 0.000781 µM
# [24] = RPMI 5 mM glucose + 10% dialyzed FBS, 0.00234 µM
# [25] = RPMI 5 mM glucose + 10% dialyzed FBS, 0.00702 µM
# [26] = RPMI 5 mM glucose + 10% dialyzed FBS, 0.0211 µM
# [27] = RPMI 5 mM glucose + 10% dialyzed FBS, 0.0632 µM
# [28] = RPMI 5 mM glucose + 10% dialyzed FBS, 0.19 µM
# [29] = RPMI 5 mM glucose + 10% dialyzed FBS, 0.569 µM
# [30] = RPMI 5 mM glucose + 10% dialyzed FBS, 1.71 µM
# [31] = RPMI 5 mM glucose + 10% dialyzed FBS, 5.12 µM
# [32] = RPMI 5 mM glucose + 10% dialyzed FBS, 15.4 µM
# [33] = RPMI 5 mM glucose + 10% dialyzed FBS, 46.1 µM
Compound,cell viability [1] [%],cell viability [2] [%],cell viability [3] [%],cell viability [4] [%],cell viability [5] [%],cell viability [6] [%],cell viability [7] [%],cell viability [8] [%],cell viability [9] [%],cell viability [10] [%],cell viability [11] [%],cell viability [12] [%],cell viability [13] [%],cell viability [14] [%],cell viability [15] [%],cell viability [16] [%],cell viability [17] [%],cell viability [18] [%],cell viability [19] [%],cell viability [20] [%],cell viability [21] [%],cell viability [22] [%],cell viability [23] [%],cell viability [24] [%],cell viability [25] [%],cell viability [26] [%],cell viability [27] [%],cell viability [28] [%],cell viability [29] [%],cell viability [30] [%],cell viability [31] [%],cell viability [32] [%],cell viability [33] [%]
CN[C@@H]1C[C@H]2O[C@@](C)([C@@H]1OC)n1c3ccccc3c3c4c(c5c6ccccc6n2c5c31)C(=O)N[C@H]4O,72.1,79.1,87.6,77.7,64,55.4,36.7,16.5,6.79,3.78,3.23,81.2,87.9,83.8,84.1,57.5,69.5,35.4,5.65,4.44,4.12,2.58,82.8,78,76.6,90.4,67.3,69.8,45,5.6,5.83,3.57,2.57
Cc1cn(CCN2CCN(c3ccccc3-c3cc(C#N)cc(C(=O)NCCCN4CCCC4)c3)CC2)c2ccccc12,103,103,94.9,97.1,99.9,101,112,102,73.2,23.8,18.3,–,–,–,–,–,–,–,–,–,–,–,104,116,116,101,117,119,128,113,102,42,27
CC(C)NCC(O)COc1ccc(CCOCC2CC2)cc1 (stereo not drawn),94.9,94.5,101,107,106,116,99.1,90.4,107,91.4,95.1,–,–,–,–,–,–,–,–,–,–,–,115,104,110,113,109,113,125,114,97.6,105,108
N#CC(=C(/N)Sc1ccccc1N)/C(C#N)=C(\N)Sc1ccccc1N,95.9,101,129,133,116,123,111,113,94.1,100,83,–,–,–,–,–,–,–,–,–,–,–,116,120,139,151,113,118,111,98.2,93.2,89,57.3
CN[S+](=O)([O-])CCc1ccc2[nH]cc(C3CCN(C)CC3)c2c1,78.4,74.3,87.2,98.7,97.7,108,91.8,99.7,109,111,110,84,67.4,90.8,101,94.1,103,92.5,105,110,99.7,88.8,87,75.4,99.6,86.6,93.3,99.4,90.9,97,84.2,92.9,85.5
CN(C)c1ccc(Nc2nc(N)n(C(=O)c3c(F)cccc3F)n2)cc1,105,118,110,92.2,111,117,97.1,69,43.9,64.7,56.1,108,110,123,96.8,118,120,90.2,42.7,32.3,38,48.7,102,118,117,76.3,142,127,95.5,61.2,34.8,40.5,40.6
COc1cc(OC)c(NC(=O)Nc2cc(C)on2)cc1Cl,95.9,94.2,104,98.4,94.6,99.8,97.3,112,100,97.5,71.3,74.3,79.6,90.9,89.6,82,86.5,91.3,92,76.6,80.6,63.8,84.8,100,90.3,94.5,105,108,96.1,89.7,101,91.5,71.1
NC(=O)c1cccc(N)c1,92.8,104,38.7,112,116,120,113,129,115,106,118,72.3,106,10.3,79.6,84.5,97.8,82.9,85.5,80.6,104,81.6,79.9,115,27.4,95.4,102,98.2,105,94.4,96.3,117,99.4
OC1=CC=C(C=C1)\C2=C\C(=O)C3=C(O2)C=C(O)C=C3O,106,111,115,112,113,108,108,94.4,106,113,96.3,–,–,–,–,–,–,–,–,–,–,–,92,121,119,109,111,108,108,94.9,93.6,98,64.2
